Patent publication US10132810B2, “Method for assessing and predicting efficacy of breast cancer treatment with a long-acting topoisomerase I inhibitor” (priority 2012, dated 2018)
Where two headings read alike, the source gives them in different places.

Key:
serum CA27.29 = tested on: serum CA27.29
Method: Medical history was taken at screening and on day 1 of each cycle. Physical exam was performed and serum CA27.29, complete blood count with differential, and serum chemistry were analyzed at screening, on day 1 of each cycle, and at end of treatment. Coagulation parameters were analyzed at screening and on day 1 of each cycle. […] Patients were contacted approximately every 3 months after the end-of-treatment visit to assess progression (in the absence of progression on study), survival, receipt of subsequent anti-cancer therapy, and resolution of toxicity.
Secondary endpoints were PFS, overall survival (OS), 6-month and 1-year survival, and safety. Exploratory endpoints included change from baseline in CA27.29, UGT1A1 and ABCC2 polymorphism for correlation with select toxicities.
The analysis dataset utilized consisted of 45 patients having at least two CA27.29 measurements (pre- and post-first dose).
Levels of CA27.29 were also evaluated for correlation with tumor size over the course of treatment.

[1] = tested on: patients with previously treated metastatic breast cancer; test: Efficacy of two dosing schedules in patients with previously treated metastatic breast cancer (RECIST response, PFS, OS); format: in vivo, human
Method: Seventy patients were enrolled in the trial (n=35 per arm). […] Patients received treatment until disease progression or unacceptable toxicity. The drug dosage was dose-reduced by 25 mg/m^2 for grade 3-4 hematologic toxicity, grade 3-4 diarrhea, and other grade 2-4 non-hematologic toxicities (other than alopecia, anorexia, asthenia, and untreated nausea/vomiting). […] Medical history was taken at screening and on day 1 of each cycle. […] Coagulation parameters were analyzed at screening and on day 1 of each cycle. […] Patients were contacted approximately every 3 months after the end-of-treatment visit to assess progression (in the absence of progression on study), survival, receipt of subsequent anti-cancer therapy, and resolution of toxicity. […] Exploratory endpoints included change from baseline in CA27.29, UGT1A1 and ABCC2 polymorphism for correlation with select toxicities. Three populations for analysis were defined: 1) intent-to-treat (ITT), 2) efficacy evaluable, and 3) safety. The ITT population was the primary population for all efficacy analyses and included all randomized patients. […] The safety population consisted of all patients who received at least one dose or partial dose of chemotherapeutic agent. Summary statistics were used for continuous variables, frequency counts and percentages were used for categorical variables. Ninety-five percent confidence interval were calculated for ORR using the Exact method. Time-to-event variables were analyzed using the Kaplan-Meier method.

## Pentaerythritolyl-4-Arm-(PEG-1-Methylene-2 Oxo-Vinylamino Acetate linked-Irinotecan)-20K [4-arm-PEG-gly-irino-20K]
Serum CA27.29; 145 mg/m^2, both q14d and q21d regimens, FIGS. 1A and 1B
  decrease in serum CA27.29 levels over time: at least twenty five
Serum CA27.29; RECIST PD, FIG. 5
  median change in CA27.29: increased
Serum CA27.29; RECIST PR and CR, FIG. 5
  median of the maximum CA27.29 decline: > 50%
Serum CA27.29; RECIST SD < 6 months, FIG. 5
  median decline in CA27.29: negligible
Serum CA27.29; RECIST SD >= 6 months, FIG. 5
  median of the maximum decline in CA27.29: 30%
Serum CA27.29; Total, 16/45 patients
  Overall best CA27.29 response (50% or better decline in at least one observation from baseline): 36% (16/45)
Serum CA27.29; patients with <25% reduction (n=4) or elevations (n=13) in CA27.29 by week 6
  median PFS: 6 months
Serum CA27.29; patients with >=25% reduction in CA27.29 by week 6 (n=12)
  median PFS: 12 months
Serum CA27.29; patients with RECIST PD (8/10)
  patients showing CA27.29 elevation from baseline: Eighty
Serum CA27.29; patients with RECIST SD >= 6 months (n=5)
  patients manifesting declines in CA27.29: All patients
Serum CA27.29; patients with SD < 6 months (6/11)
  patients showing a decline in CA27.29: 55%
[1]; 145 mg/m^2 iv, administered every 14 days or every 21 days
  objective response rate (ORR): 28.6%
[1]; Total (both schedules)
  Overall Survival (OS): 10.3 months
  Progression Free Survival (PFS): 4.6 months
[1]; Total (both schedules), N = 66
  Overall Response Rate (ORR): 29% (N = 66)
[1]; q21d schedule
  Overall Survival (OS): 13.1 months
  Progression Free Survival (PFS): 5.3 months
